Laboratory results from patent publication US4971967A, “Quinolinecarboxylic acid derivatives, antibacterial compositions and use” (Kanebo Ltd, priority 1989, dated 1990).
Converted amounts (≈) assume the structure as drawn. Counter-ions that a name gives are not always drawn. Like-named read-outs stand apart in the source and are kept apart here.

Key:
Format in all cases: cell-based
[1] = test system: Streptococcus faecalis IID 682; assay: Antibacterial activity (MIC), Streptococcus faecalis IID 682; details: for MIC: Enterococcus faecalis, IID682, read-out: Minimum inhibitory concentration (MIC)
Experimental: (§1) The compounds of the present invention (A, C, D, E, F, G, H, I, J, L, O and P) and the known compound (X) as reference were dissolved in 0.1 N aqueous sodium hydroxide to prepare a solution of 5000 μg/ml in concentration. The compounds of the present invention (B, K, M and N) and the known compound (Y) were dissolved in sterilized distilled water to prepare a solution of 5000 μg/ml in concentration. Each solution was diluted with sterilized distilled water to prepare a standard solution with a concentration of each test compound: 1000 μg/ml. The test was carried out by a method as appointed by Japan Society of Chemotherapy [cf. Chemotherapy, 29, 76-79 (1981)(TOKYO)].

[2] = test system: Micrococcus luteus ATCC 9341; assay: Antibacterial activity (MIC), Micrococcus luteus ATCC 9341; details: ATCC9341; Micrococcus luteus ATCC 9341, Gram +; read-out: Minimum inhibitory concentration (MIC)
Experimental: as §1

[3] = test system: Klebsiella pneumoniae PCI-602; assay: Antibacterial activity (MIC), Klebsiella pneumoniae PCI-602; details: PCI602; Klebsiella pneumoniae PCI-602, Gram -; read-out: Minimum inhibitory concentration (MIC)
Experimental: as §1

[4] = test system: Staphylococcus epidermidis IAM-1296; assay: Antibacterial activity (MIC), S. epidermidis IAM-1296; details: for MIC: Staphylococcus epidermidis, IAM1296, Staphylococcus epidermidis IAM-1296, Gram +, read-out: Minimum inhibitory concentration (MIC)
Experimental: as §1

Enterobacter cloacae 963 = assay: Antibacterial activity (MIC), Enterobacter cloacae 963; details: for MIC: Enterobacter cloacae, 963, Enterobacter cloacae 963, Gram -, read-out: Minimum inhibitory concentration (MIC)
Experimental: as §1

[5] = test system: Citrobacter freundii NIHJ 10018-68; assay: Antibacterial activity (MIC), Citrobacter freundii NIHJ 10018-68; details: for MIC: Citrobacter freundii, NIHJ10018, Citrobacter freundii NIHJ 10018-68, Gram -, read-out: Minimum inhibitory concentration (MIC)
Experimental: as §1

[6] = test system: Serratia marcescens IAM 1184; assay: Antibacterial activity (MIC), Serratia marcescens IAM 1184; details: for MIC: Serratia marcescens, IAM1184, Serratia marcescens IAM 1184, Gram -, read-out: Minimum inhibitory concentration (MIC)
Experimental: as §1

Escherichia coli KC-14 = assay: Antibacterial activity (MIC), E. coli KC-14; details: KC14; Escherichia coli KC-14, Gram -; read-out: Minimum inhibitory concentration (MIC)
Experimental: as §1

[7] = test system: Enterobacter aerogenes ATCC 13048; assay: Antibacterial activity (MIC), Enterobacter aerogenes ATCC 13048; details: Klebsiella aerogenes, ATCC13048; Enterobacter aerogenes ATCC 13048, Gram -; read-out: Minimum inhibitory concentration (MIC)
Experimental: as §1

[8] = test system: Staphylococcus aureus IID 803; assay: Antibacterial activity (MIC), S. aureus IID 803; details: IID803; Staphylococcus aureus IID 803, Gram +; read-out: Minimum inhibitory concentration (MIC)
Experimental: as §1

[9] = test system: Morganella morganii IFO 3848; assay: Antibacterial activity (MIC), Morganella morganii IFO 3848; details: for MIC: Morganella morganii, IFO3848, Morganella morganii IFO 3848, Gram -, read-out: Minimum inhibitory concentration (MIC); for Minimum inhibitory concentration (MIC): Morganella morganii IFO 3848, Gram -, hydrochloride
Experimental: as §1

[10] = test system: Pseudomonas aeruginosa IFO 3445; assay: Antibacterial activity (MIC), P. aeruginosa IFO 3445; details: for MIC: Pseudomonas aeruginosa, IFO3445, Pseudomonas aeruginosa IFO 3445, Gram -, read-out: Minimum inhibitory concentration (MIC)
Experimental: as §1

Shigella sonnei EW-33 = assay: Antibacterial activity (MIC), Shigella sonnei EW-33; details: for MIC: Shigella sonnei, EW33, Shigella sonnei EW-33, Gram -, read-out: Minimum inhibitory concentration (MIC)
Experimental: as §1

[11] = test system: Escherichia coli NIHJ JC-2; assay: Antibacterial activity (MIC), E. coli NIHJ JC-2; details: NIHJJC2; Escherichia coli NIHJ JC-2, Gram -; read-out: Minimum inhibitory concentration (MIC)
Experimental: as §1

[12] = test system: Pseudomonas aeruginosa E-2; assay: Antibacterial activity (MIC), P. aeruginosa E-2; details: E2; Pseudomonas aeruginosa E-2, Gram -; read-out: Minimum inhibitory concentration (MIC)
Experimental: as §1

[13] = test system: Bacillus subtilis ATCC 6633; assay: Antibacterial activity (MIC), Bacillus subtilis ATCC 6633; details: for MIC: Bacillus subtilis, ATCC6633, Bacillus subtilis ATCC 6633, Gram +, read-out: Minimum inhibitory concentration (MIC)
Experimental: as §1

[14] = test system: Salmonella typhimurium IID 971; assay: Antibacterial activity (MIC), Salmonella typhimurium IID 971; details: Salmonella enterica, read-out: Minimum inhibitory concentration (MIC)
Experimental: as §1

[15] = test system: Acinetobacter calcoaceticus AC 54; assay: Antibacterial activity (MIC), Acinetobacter calcoaceticus AC 54; details: AC54; Acinetobacter calcoaceticus AC 54, Gram -; read-out: Minimum inhibitory concentration (MIC)
Experimental: as §1

[16] = test system: Staphylococcus aureus FDA 209P JC-1; assay: Antibacterial activity (MIC), S. aureus FDA 209P JC-1; details: FDA209P; Staphylococcus aureus FDA 209P JC-1, Gram +; read-out: Minimum inhibitory concentration (MIC)
Experimental: as §1

Proteus vulgaris OX-19 = assay: Antibacterial activity (MIC), Proteus vulgaris OX-19; details: OX19; Proteus vulgaris OX-19, Gram -; read-out: Minimum inhibitory concentration (MIC)
Experimental: as §1

[17] = test system: Pseudomonas aeruginosa NCTC 10490; assay: Antibacterial activity (MIC), P. aeruginosa NCTC 10490; details: for MIC: Pseudomonas aeruginosa, NCTC10490, Pseudomonas aeruginosa NCTC 10490, Gram -, read-out: Minimum inhibitory concentration (MIC)
Experimental: as §1

[18] = test system: Proteus mirabilis IFO 3849; assay: Antibacterial activity (MIC), Proteus mirabilis IFO 3849; details: IFO3849; Proteus mirabilis IFO 3849, Gram -; read-out: Minimum inhibitory concentration (MIC)
Experimental: as §1

[19] = Salmonella typhimurium IID 971, Gram -

CN1Cc2csc3c(C(=O)O)c(=O)c4cc(F)c(N5CCCC5)c1c4n23 [Compound (F), 9,1-(Methylimino)methano-7-fluoro-8-(1-pyrrolidinyl)-5-oxo-5H-thiazolo[3,2-a]quinoline-4-carboxylic acid]
MIC [1]: 0.1 µg/mL (≈ 0.268 µM) | MIC [2]: 0.39 µg/mL (≈ 1.04 µM) | MIC [3]: 0.006 µg/mL (≈ 0.0161 µM) | MIC [4]: 0.025 µg/mL (≈ 0.067 µM) | MIC (Enterobacter cloacae 963): 0.39 µg/mL (≈ 1.04 µM) | MIC [5]: 1.56 µg/mL (≈ 4.18 µM) | MIC [6]: 0.78 µg/mL (≈ 2.09 µM) | MIC (Escherichia coli KC-14): 0.2 µg/mL (≈ 0.536 µM) | MIC [7]: 0.39 µg/mL (≈ 1.04 µM) | MIC [8]: 0.0125 µg/mL (≈ 0.0335 µM) | MIC [9]: 0.39 µg/mL (≈ 1.04 µM) | MIC [10]: 0.78 µg/mL (≈ 2.09 µM) | MIC (Shigella sonnei EW-33): 0.1 µg/mL (≈ 0.268 µM) | MIC [11]: 0.2 µg/mL (≈ 0.536 µM) | MIC [12]: 0.39 µg/mL (≈ 1.04 µM) | MIC [13]: 0.006 µg/mL (≈ 0.0161 µM) | MIC [14, 19]: 0.2 µg/mL (≈ 0.536 µM) | MIC [15]: 0.006 µg/mL (≈ 0.0161 µM) | MIC [16]: 0.0125 µg/mL (≈ 0.0335 µM) | MIC (Proteus vulgaris OX-19): 0.025 µg/mL (≈ 0.067 µM) | MIC [17]: 0.39 µg/mL (≈ 1.04 µM) | MIC [18]: 0.39 µg/mL (≈ 1.04 µM)

CCN1CCN(c2c(F)cc3c(=O)c(C(=O)O)c4scc5n4c3c2N(C)C5)CC1 [Compound (K), 9,1-(Methylimino)methano-7-fluoro-8-(4-ethyl-1-piperazinyl)-5-oxo-5H-thiazolo[3,2-a]quinoline-4-carboxylic acid hydrochloride]
Minimum inhibitory concentration (MIC) ([1]; Streptococcus faecalis IID 682, Gram +, hydrochloride): 0.20 µg/mL | MIC (Escherichia coli KC-14): 0.05 µg/mL | Minimum inhibitory concentration (MIC) [9]: 0.20 µg/mL | MIC [14, 19]: 0.05 µg/mL | MIC [15]: 0.05 µg/mL

CN1Cc2csc3c(C(=O)O)c(=O)c4cc(F)c(N5CCC(O)C5)c1c4n23 (centres unmarked) [Compound (G), 9,1-(Methylimino)methano-7-fluoro-8-(3-hydroxy-1-pyrrolidinyl)-5-oxo-5H-thiazolo[3,2-a]quinoline-4-carboxylic acid]
MIC [1]: 0.05 µg/mL (≈ 0.128 µM) | MIC [2]: 0.39 µg/mL (≈ 1 µM) | MIC [3]: 0.006 µg/mL (≈ 0.0154 µM) | MIC [4]: 0.0125 µg/mL (≈ 0.0321 µM) | MIC (Enterobacter cloacae 963): 0.2 µg/mL (≈ 0.514 µM) | MIC [5]: 0.78 µg/mL (≈ 2 µM) | MIC [6]: 0.78 µg/mL (≈ 2 µM) | MIC (Escherichia coli KC-14): 0.1 µg/mL (≈ 0.257 µM) | MIC [7]: 0.2 µg/mL (≈ 0.514 µM) | MIC [8]: 0.0125 µg/mL (≈ 0.0321 µM) | MIC [9]: 0.2 µg/mL (≈ 0.514 µM) | MIC [10]: 0.78 µg/mL (≈ 2 µM) | MIC (Shigella sonnei EW-33): 0.05 µg/mL (≈ 0.128 µM) | MIC [11]: 0.1 µg/mL (≈ 0.257 µM) | MIC [12]: 0.78 µg/mL (≈ 2 µM) | MIC [13]: 0.006 µg/mL (≈ 0.0154 µM) | MIC [14]: 0.05 µg/mL (≈ 0.128 µM) | MIC [15]: 0.006 µg/mL (≈ 0.0154 µM) | MIC [16]: 0.0125 µg/mL (≈ 0.0321 µM) | MIC (Proteus vulgaris OX-19): 0.0125 µg/mL (≈ 0.0321 µM) | MIC [17]: 0.39 µg/mL (≈ 1 µM) | MIC [18]: 0.1 µg/mL (≈ 0.257 µM)

CN1CCN(c2c(F)cc3c(=O)c(C(=O)O)c4scc5n4c3c2N(C)C5)CC1 [Compound (B), 9,1-(Methylimino)methano-7-fluoro-8-(4-methyl-1-piperazinyl)-5-oxo-5H-thiazolo [3,2-a]quinoline-4-carboxylic acid hydrochloride]
Minimum inhibitory concentration (MIC) ([4]; Staphylococcus epidermidis IAM-1296, Gram +, hydrochloride): 0.10 µg/mL | Minimum inhibitory concentration (MIC) (Enterobacter cloacae 963; Enterobacter cloacae 963, Gram -, hydrochloride): 0.10 µg/mL | Minimum inhibitory concentration (MIC) ([5]; Citrobacter freundii NIHJ 10018-68, Gram -, hydrochloride): 0.39 µg/mL | Minimum inhibitory concentration (MIC) ([6]; Serratia marcescens IAM 1184, Gram -, hydrochloride): 0.39 µg/mL | Minimum inhibitory concentration (MIC) [9]: 0.10 µg/mL | Minimum inhibitory concentration (MIC) ([10]; Pseudomonas aeruginosa IFO 3445, Gram -, hydrochloride): 0.78 µg/mL | Minimum inhibitory concentration (MIC) (Shigella sonnei EW-33; Shigella sonnei EW-33, Gram -, hydrochloride): 0.05 µg/mL | Minimum inhibitory concentration (MIC) ([13]; Bacillus subtilis ATCC 6633, Gram +, hydrochloride): 0.025 µg/mL | MIC [15]: 0.05 µg/mL | Minimum inhibitory concentration (MIC) ([17]; Pseudomonas aeruginosa NCTC 10490, Gram -, hydrochloride): 0.39 µg/mL
